Data reported in ChEMBL document CHEMBL1134025, “Thiosugars. Part 9: synthesis and biological evaluation of some 4'-thio-L-arabino nucleoside analogues” (2001).
Values after ≈ are worked out from the molar mass of the structure shown.

Test system: Vaccinia virus
Assay: Minimum inhibitory concentration required to reduce Vaccinia virus induced cytopathogenicity by 50%
Format: functional
Settings: Orthopoxvirus vaccinia

Structure (SMILES)	MIC
O=c1ccn([C@H]2S[C@@H](CO)[C@H](O)[C@H]2O)c(=O)[nH]1	400 µg/mL (≈ 1540 µM)
O=c1ccn([C@@H]2S[C@@H](CO)[C@H](O)[C@H]2O)c(=O)[nH]1	400 µg/mL (≈ 1540 µM)
Nc1ncnc2c1ncn2[C@@H]1S[C@@H](CO)[C@H](O)[C@H]1O	400 µg/mL (≈ 1410 µM)
Nc1ncnc2c1ncn2[C@H]1S[C@@H](CO)[C@H](O)[C@H]1O	400 µg/mL (≈ 1410 µM)
Nc1ccn(C2S[C@@H](CO)[C@H](O)[C@H]2O)c(=O)n1 (some centres not stated)	400 µg/mL (≈ 1540 µM)
Cc1cn([C@H]2S[C@@H](CO)[C@H](O)[C@H]2O)c(=O)[nH]c1=O	400 µg/mL (≈ 1460 µM)
Cc1cn([C@@H]2S[C@@H](CO)[C@H](O)[C@H]2O)c(=O)[nH]c1=O	400 µg/mL (≈ 1460 µM)
